Here are results for one compound from article PMC12037037 (Proceedings of the National Academy of Sciences of the …, 2025).

“Also recorded” adds a separate entry of the source.

Data set [1] in a line: ADME assays (Eurofins, ChemPartner). The data set is classed as in vitro ADME. The following applies: overall statement. How it is done: (§1) (1 picture or pasted object on this page, not shown here)
(§2) Comparison Between WT and S242A5.46 psychLight Variants. Activity in WT and S242A5.46 mutant forms of PsychLight was quantified by deriving ligand activity ratios (log(Emax/EC50)). […]
(§3) and (+)-JRT were fit to a log(agonist) vs. response (three parameters) curve. The Emax/EC50 analysis was performed as previously described in detail by others (16):
(§4) Response = Basal + E!"# − Basal where Emax and Basal represent the top and bottom asymptotes of the curve fit, respectively; EC50 represents the concentration that gives a response halfway between Emax and Basal; and Log[A] is the logarithm of the agonist concentration. Then, ligand activity ratios, log(Emax/EC50) were calculated for each test ligand and statistical comparisons made between each other and between genotypes using a two-way ANOVA and significant interaction effects followed by a Šídák's multiple comparisons test.
(§5) ADME and hERG Inhbition Assays. […]
(§6) Briefly, 96 well plates were coated with poly-D-lysine and approximately 15,000 cells/well. […] Images were analyzed using the Simple Neurite Tracer and Sholl analysis plug-ins for ImageJ Fiji (version 1.51N). […] All images were taken and analyzed by an experimenter blinded to treatment conditions.
(§7) Spinogenesis Assays Using Cultured Rat Cortical Neurons. […] Images were analyzed using ImageJ Fiji (version 1.51N). […]

In data set [2] the target is T1, human ether-a-go-go related gene (hERG) channels (Homo sapiens, UniProt Q12809).
T1 construct: Apconix
T1 sequence (Q12809 whole entry): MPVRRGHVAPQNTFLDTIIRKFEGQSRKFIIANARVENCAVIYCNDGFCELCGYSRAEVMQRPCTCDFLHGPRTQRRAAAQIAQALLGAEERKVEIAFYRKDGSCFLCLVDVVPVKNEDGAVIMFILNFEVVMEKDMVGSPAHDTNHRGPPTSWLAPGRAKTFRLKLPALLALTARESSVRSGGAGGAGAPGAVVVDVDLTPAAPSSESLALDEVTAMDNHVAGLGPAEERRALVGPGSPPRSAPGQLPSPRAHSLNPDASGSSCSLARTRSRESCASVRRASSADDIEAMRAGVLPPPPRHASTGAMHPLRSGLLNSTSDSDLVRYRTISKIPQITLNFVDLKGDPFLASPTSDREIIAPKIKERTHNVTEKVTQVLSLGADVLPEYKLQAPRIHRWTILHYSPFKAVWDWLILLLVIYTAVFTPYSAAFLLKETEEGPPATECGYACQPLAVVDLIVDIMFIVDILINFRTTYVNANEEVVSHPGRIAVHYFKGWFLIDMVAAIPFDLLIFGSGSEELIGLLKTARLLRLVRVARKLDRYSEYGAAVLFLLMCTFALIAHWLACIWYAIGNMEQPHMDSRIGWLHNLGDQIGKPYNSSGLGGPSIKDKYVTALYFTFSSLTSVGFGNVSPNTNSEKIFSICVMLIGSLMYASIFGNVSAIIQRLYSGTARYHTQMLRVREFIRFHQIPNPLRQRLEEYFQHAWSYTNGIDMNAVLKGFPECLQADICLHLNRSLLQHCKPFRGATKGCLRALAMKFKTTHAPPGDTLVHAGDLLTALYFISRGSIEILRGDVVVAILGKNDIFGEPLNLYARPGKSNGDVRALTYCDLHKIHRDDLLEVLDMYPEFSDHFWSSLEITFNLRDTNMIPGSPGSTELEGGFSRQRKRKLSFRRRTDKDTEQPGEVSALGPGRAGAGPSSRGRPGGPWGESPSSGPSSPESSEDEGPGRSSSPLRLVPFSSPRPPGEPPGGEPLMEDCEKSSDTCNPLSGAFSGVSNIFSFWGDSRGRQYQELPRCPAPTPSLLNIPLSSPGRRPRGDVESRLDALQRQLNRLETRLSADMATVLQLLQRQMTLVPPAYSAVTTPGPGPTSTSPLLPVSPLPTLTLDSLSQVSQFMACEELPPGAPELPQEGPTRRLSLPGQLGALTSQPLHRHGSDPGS
The data set is described as follows: hERG inhibition assay (Apconix). The class given is biochemical. The method, then:
as §1, §2, §3, §4, §5, §6, §7
On the technique in general: hERG is a cardiac potassium channel; its block is linked to QT prolongation.

As to `CCN(CC)C(=O)[C@@H]1C=C2c3cccc4ccn(c34)C[C@H]2N(C)C1` [(+)-JRT], the ADME properties entry in data set [1] is reported as “excellent”. The hERG channel inhibition result in data set [2] is listed as “does not inhibit hERG channels; also recorded: did not inhibit”.
